Source: PMC5218480 (PLoS ONE, 2017)

Test system: MV-4-11 cells
Assay: Gene expression microarray analysis (Affymetrix PrimeView) and GSEA
Assay type: cell-based, human
Set-up: RFU PODN (11730768_x_at) / Fold change /veh PODN (11730768_x_at) / RFU LINC00158 (11744669_a_at) / Fold change /veh LINC00158 (11744669_a_at) / RFU DUSP10 (11751237_a_at) / Fold change /veh DUSP10 (11751237_a_at) / RFU ID3 (11757404_x_at) / Fold change /veh ID3 (11757404_x_at) / RFU PLEKHG5 (11737974_s_at) / Fold change /veh PLEKHG5 (11737974_s_at) / RFU LRRC4B (11730491_at) / Fold change /veh LRRC4B (11730491_at) / RFU GIMAP4 (11747438_a_at) / Fold change /veh GIMAP4 (11747438_a_at) / RFU KRT8 (11758183_x_at) / Fold change /veh KRT8 (11758183_x_at) / RFU CNN1 (11734310_a_at) / Fold change /veh CNN1 (11734310_a_at) / RFU VPS37D (11726825_at) / Fold change /veh VPS37D (11726825_at) / RFU C10orf10 (11716522_x_at) / Fold change /veh C10orf10 (11716522_x_at) / RFU KIR2DL2 /// KIR2DL4 /// KIR2DL5A /// KIR2DL5B /// KIR2DS1 /// KIR2DS2 /// KIR2DS3 /// KIR2DS4 /// KIR3DL3 /// KIR3DL3 /// KIR3DS1 (11738374_at) / Fold change /veh KIR2DL2 /// KIR2DL4 /// KIR2DL5A /// KIR2DL5B /// KIR2DS1 /// KIR2DS2 /// KIR2DS3 /// KIR2DS4 /// KIR3DL3 /// KIR3DL3 /// KIR3DS1 (11738374_at) / RFU C1QL1 (11718748_at) / Fold change /veh C1QL1 (11718748_at) / RFU TMPRSS4 (11747572_a_at) / Fold change /veh TMPRSS4 (11747572_a_at) / RFU HAMP (11756126_x_at) / Fold change /veh HAMP (11756126_x_at) / RFU RNFT2 (11725882_a_at) / Fold change /veh RNFT2 (11725882_a_at) / RFU NR4A2 (11747474_a_at) / Fold change /veh NR4A2 (11747474_a_at) / RFU ABCC12 (11746883_a_at) / Fold change /veh ABCC12 (11746883_a_at) / RFU TMEM136 (11760407_x_at) / Fold change /veh TMEM136 (11760407_x_at) / RFU CLDN22 /// WWC2 (11732394_at) / Fold change /veh CLDN22 /// WWC2 (11732394_at) / RFU HLA-DPB1 (11760878_x_at) / Fold change /veh HLA-DPB1 (11760878_x_at) / RFU SPINT1 (11716480_a_at) / Fold change /veh SPINT1 (11716480_a_at) / RFU GAP43 (11754022_s_at) / Fold change /veh GAP43 (11754022_s_at) / RFU A4GNT (11735810_at) / Fold change /veh A4GNT (11735810_at) / RFU PRB3 (11715151_x_at) / Fold change /veh PRB3 (11715151_x_at) / RFU TUBB4B (11761932_at) / Fold change /veh TUBB4B (11761932_at) / RFU CAPN14 (11732068_a_at) / Fold change /veh CAPN14 (11732068_a_at) / RFU TMCC2 (11721928_a_at) / Fold change /veh TMCC2 (11721928_a_at) / RFU IRGQ (11745062_a_at) / Fold change /veh IRGQ (11745062_a_at) / RFU FAM174B (11720279_a_at) / Fold change /veh FAM174B (11720279_a_at) / RFU TMPRSS4 (11748680_a_at) / Fold change /veh TMPRSS4 (11748680_a_at) / RFU FAM212B (11763350_a_at) / Fold change /veh FAM212B (11763350_a_at) / RFU PLEKHG5 (11743358_a_at) / Fold change /veh PLEKHG5 (11743358_a_at) / RFU ZSCAN30 (11745921_a_at) / Fold change /veh ZSCAN30 (11745921_a_at) / RFU CMKLR1 (11741424_a_at) / Fold change /veh CMKLR1 (11741424_a_at) / RFU LOC101060620 /// MAPK8IP1 (11723275_at) / Fold change /veh LOC101060620 /// MAPK8IP1 (11723275_at) / RFU SPTSSB (11747773_x_at) / Fold change /veh SPTSSB (11747773_x_at) / RFU PRSS12 (11739890_at) / Fold change /veh PRSS12 (11739890_at) / RFU BIN1 (11741810_x_at) / Fold change /veh BIN1 (11741810_x_at) / RFU WNT11 (11732464_a_at) / Fold change /veh WNT11 (11732464_a_at) / RFU C10orf10 (11716521_a_at) / Fold change /veh C10orf10 (11716521_a_at) / RFU C5orf56 (11738089_at) / Fold change /veh C5orf56 (11738089_at) / RFU CYB561 (11721691_x_at) / Fold change /veh CYB561 (11721691_x_at) / RFU ANKRD19P (11752326_a_at) / Fold change /veh ANKRD19P (11752326_a_at) / RFU OR2T12 /// OR2T33 /// OR2T8 (11738714_s_at) / Fold change /veh OR2T12 /// OR2T33 /// OR2T8 (11738714_s_at) / RFU VCAN (11748164_a_at) / Fold change /veh VCAN (11748164_a_at) / RFU JSRP1 (11732532_at) / Fold change /veh JSRP1 (11732532_at) / RFU KRTAP10-11 (11738290_x_at) / Fold change /veh KRTAP10-11 (11738290_x_at) / RFU MYO3A (11730013_a_at) / Fold change /veh MYO3A (11730013_a_at) / RFU EBF3 (11725865_a_at) / Fold change /veh EBF3 (11725865_a_at) / RFU CAMK2N1 (11719241_x_at) / Fold change /veh CAMK2N1 (11719241_x_at) / RFU C5orf56 (11738088_a_at) / Fold change /veh C5orf56 (11738088_a_at) / RFU OLFML3 (11715873_a_at) / Fold change /veh OLFML3 (11715873_a_at) / RFU LOC100653217 /// NTM (11731650_a_at) / Fold change /veh LOC100653217 /// NTM (11731650_a_at) / RFU MAPK11 (11762145_a_at) / Fold change /veh MAPK11 (11762145_a_at) / RFU FIZ1 (11724087_x_at) / Fold change /veh FIZ1 (11724087_x_at) / RFU OASL (11726364_x_at) / Fold change /veh OASL (11726364_x_at) / RFU SOX15 (11748057_x_at) / Fold change /veh SOX15 (11748057_x_at) / RFU CD79A (11719716_a_at) / Fold change /veh CD79A (11719716_a_at) / RFU HIST1H1D (11736915_at) / Fold change /veh HIST1H1D (11736915_at) / RFU CASKIN2 (11723855_a_at) / Fold change /veh CASKIN2 (11723855_a_at) / RFU LOC730098 (11760151_x_at) / Fold change /veh LOC730098 (11760151_x_at) / RFU OR4N2 (11742367_at) / Fold change /veh OR4N2 (11742367_at) / RFU PRRT2 (11749266_a_at) / Fold change /veh PRRT2 (11749266_a_at) / RFU SNX32 (11753110_a_at) / Fold change /veh SNX32 (11753110_a_at) / RFU CDHR5 (11726645_a_at) / Fold change /veh CDHR5 (11726645_a_at) / RFU RCAN1 (11760418_a_at) / Fold change /veh RCAN1 (11760418_a_at) / RFU FAM167A (11723789_a_at) / Fold change /veh FAM167A (11723789_a_at) / RFU FAM26E (11764081_at) / Fold change /veh FAM26E (11764081_at) / RFU ISYNA1 (11749810_s_at) / Fold change /veh ISYNA1 (11749810_s_at) / RFU ACY1 (11761880_at) / Fold change /veh ACY1 (11761880_at) / RFU 11764098_at / Fold change /veh 11764098_at / RFU SAMD14 (11745864_x_at) / Fold change /veh SAMD14 (11745864_x_at) / RFU NPB (11741838_a_at) / Fold change /veh NPB (11741838_a_at) / RFU TMPRSS6 (11731388_a_at) / Fold change /veh TMPRSS6 (11731388_a_at) / RFU KRTAP10-2 (11738614_at) / Fold change /veh KRTAP10-2 (11738614_at) / RFU ARHGAP8 /// PRR5-ARHGAP8 (11727945_x_at) / Fold change /veh ARHGAP8 /// PRR5-ARHGAP8 (11727945_x_at) / RFU KRTAP5-7 /// NADSYN1 (11734609_at) / Fold change /veh KRTAP5-7 /// NADSYN1 (11734609_at) / RFU RASL12 (11751679_a_at) / Fold change /veh RASL12 (11751679_a_at) / RFU CDKN2B (11736163_a_at) / Fold change /veh CDKN2B (11736163_a_at) / RFU PRF1 (11729649_at) / Fold change /veh PRF1 (11729649_at) / RFU, ZNF638 /// ZNF638-IT1 / Fold change vs veh, ZNF638 /// ZNF638-IT1 / RFU, PANK3 / Fold change vs veh, PANK3 / RFU, SH3YL1 / Fold change vs veh, SH3YL1 / RFU, ZEB2 / Fold change vs veh, ZEB2 / RFU, NRIP1 / Fold change vs veh, NRIP1 / RFU, PTTG1IP / Fold change vs veh, PTTG1IP / RFU, CAPN2 / Fold change vs veh, CAPN2 / RFU, MED14 / Fold change vs veh, MED14 / RFU, SNORA58 / Fold change vs veh, SNORA58 / RFU, C1orf63 / Fold change vs veh, C1orf63 / RFU, LRRFIP1 / Fold change vs veh, LRRFIP1 / RFU, NDUFAF7 / Fold change vs veh, NDUFAF7 / RFU, SLC12A2 / Fold change vs veh, SLC12A2 / RFU, IBTK / Fold change vs veh, IBTK / RFU, ESF1 / Fold change vs veh, ESF1 / Fold change vs veh, TMEM50B / RFU, TAOK1 / Fold change vs veh, TAOK1 / RFU, ACBD3 / Fold change vs veh, ACBD3 / RFU, TMA16 / Fold change vs veh, TMA16 / RFU, RWDD3 / Fold change vs veh, RWDD3 / RFU, BCAT1 / Fold change vs veh, BCAT1 / RFU, EDEM3 / Fold change vs veh, EDEM3 / RFU, TMEM33 / Fold change vs veh, TMEM33 / RFU, WDR75 / Fold change vs veh, WDR75 / RFU, AHCTF1 / Fold change vs veh, AHCTF1 / RFU, TFRC / Fold change vs veh, TFRC / RFU, ZDHHC17 / Fold change vs veh, ZDHHC17 / RFU, NOM1 / Fold change vs veh, NOM1 / RFU, ARL8B / Fold change vs veh, ARL8B / RFU, ZBTB11 / Fold change vs veh, ZBTB11 / RFU, TAMM41 / Fold change vs veh, TAMM41 / RFU, KIAA1704 /// LOC100996395 / Fold change vs veh, KIAA1704 /// LOC100996395 / RFU, ING1 / Fold change vs veh, ING1 / RFU, TRMT61B / Fold change vs veh, TRMT61B / RFU, FUBP3 / Fold change vs veh, FUBP3 / RFU, TP53 / Fold change vs veh, TP53 / RFU, TNKS2 / Fold change vs veh, TNKS2 / RFU, ZFP14 / Fold change vs veh, ZFP14 / RFU, ACTR2 / Fold change vs veh, ACTR2 / RFU, PPP3R1 / Fold change vs veh, PPP3R1 / RFU, PIK3R1 / Fold change vs veh, PIK3R1 / RFU, HNRNPA1 / Fold change vs veh, HNRNPA1 / RFU, RNF170 / Fold change vs veh, RNF170 / RFU, ZNF28 / Fold change vs veh, ZNF28 / RFU, RNGTT / Fold change vs veh, RNGTT / RFU, OGT / Fold change vs veh, OGT / RFU, BRD1 / Fold change vs veh, BRD1 / RFU, MARS / Fold change vs veh, MARS / RFU, ZNF655 / Fold change vs veh, ZNF655 / RFU, FAHD1 / Fold change vs veh, FAHD1 / RFU, BDP1 / Fold change vs veh, BDP1 / RFU, LRRCC1 / Fold change vs veh, LRRCC1 / RFU, ARID1A / Fold change vs veh, ARID1A / RFU, ZNF146 / Fold change vs veh, ZNF146 / RFU, ZNF330 / Fold change vs veh, ZNF330 / RFU, GPN3 / Fold change vs veh, GPN3 / RFU, C9orf123 / Fold change vs veh, C9orf123 / RFU, N4BP2L2 / Fold change vs veh, N4BP2L2 / RFU, ARFIP1 / Fold change vs veh, ARFIP1 / RFU, FAM179B / Fold change vs veh, FAM179B / RFU, BCL10 / Fold change vs veh, BCL10 / RFU, UHRF1BP1L / Fold change vs veh, UHRF1BP1L / RFU, BET1 / Fold change vs veh, BET1 / RFU, CNOT2 / Fold change vs veh, CNOT2 / RFU, ZNF268 / Fold change vs veh, ZNF268 / Fold change vs veh, ZNF507 / RFU, DGCR2 / Fold change vs veh, DGCR2 / RFU, WDSUB1 / Fold change vs veh, WDSUB1 / Fold change vs veh, HSP90B1 /// MIR3652 / RFU, ADSS / Fold change vs veh, ADSS / RFU, GK / Fold change vs veh, GK / RFU, ZNF148 / Fold change vs veh, ZNF148 / RFU, TAF9 / Fold change vs veh, TAF9 / RFU, SLC1A5 / Fold change vs veh, SLC1A5 / RFU, SLMO2 / Fold change vs veh, SLMO2 / RFU, ABCC4 / Fold change vs veh, ABCC4 / RFU, LOC101060439 /// RAP1B / Fold change vs veh, LOC101060439 /// RAP1B / RFU, RFX7 / Fold change vs veh, RFX7 / RFU, GTPBP10 / Fold change vs veh, GTPBP10 / RFU, CNEP1R1 / Fold change vs veh, CNEP1R1 / RFU, BIVM-ERCC5 /// ERCC5 / Fold change vs veh, BIVM-ERCC5 /// ERCC5 / RFU, ILF3 / Fold change vs veh, ILF3 / RFU 11762660_at / Fold change /veh 11762660_at / RFU VCAN (11757783_s_at) / Fold change /veh VCAN (11757783_s_at) / RFU DDX43 (11728927_at) / Fold change /veh DDX43 (11728927_at) / RFU KRT8 (11758188_x_at) / Fold change /veh KRT8 (11758188_x_at) / RFU NKD1 (11759106_at) / Fold change /veh NKD1 (11759106_at) / RFU SRD5A1 (11742802_a_at) / Fold change /veh SRD5A1 (11742802_a_at) / RFU TPSAB1 /// TPSB2 (11721975_s_at) / Fold change /veh TPSAB1 /// TPSB2 (11721975_s_at) / RFU GSTM3 (11746129_a_at) / Fold change /veh GSTM3 (11746129_a_at) / RFU IL23R (11737362_x_at) / Fold change /veh IL23R (11737362_x_at) / RFU TMEM51 (11727254_a_at) / Fold change /veh TMEM51 (11727254_a_at) / RFU PIWIL2 (11732686_x_at) / Fold change /veh PIWIL2 (11732686_x_at) / RFU ORM1 (11744905_x_at) / Fold change /veh ORM1 (11744905_x_at) / RFU CCDC152 (11743942_at) / Fold change /veh CCDC152 (11743942_at) / RFU ECM1 (11717891_a_at) / Fold change /veh ECM1 (11717891_a_at) / RFU IL23R (11748794_a_at) / Fold change /veh IL23R (11748794_a_at) / RFU TNFAIP8L3 (11732012_x_at) / Fold change /veh TNFAIP8L3 (11732012_x_at) / RFU MBOAT4 (11741988_at) / Fold change /veh MBOAT4 (11741988_at) / RFU 11764193_at / Fold change /veh 11764193_at / RFU TMEM53 (11763286_at) / Fold change /veh TMEM53 (11763286_at) / RFU MAGEB2 (11727129_at) / Fold change /veh MAGEB2 (11727129_at) / RFU TMEM200A (11744735_a_at) / Fold change /veh TMEM200A (11744735_a_at) / RFU CCDC152 (11751479_a_at) / Fold change /veh CCDC152 (11751479_a_at) / RFU FAM211A (11726209_a_at) / Fold change /veh FAM211A (11726209_a_at) / RFU RGS16 (11746705_a_at) / Fold change /veh RGS16 (11746705_a_at) / RFU VCAN (11755009_s_at) / Fold change /veh VCAN (11755009_s_at) / RFU RHOB (11743442_s_at) / Fold change /veh RHOB (11743442_s_at) / RFU RGS16 (11720943_a_at) / Fold change /veh RGS16 (11720943_a_at) / RFU RGS16 (11720944_at) / Fold change /veh RGS16 (11720944_at) / RFU, VPS4B / Fold change vs veh, VPS4B / RFU, CREB1 / Fold change vs veh, CREB1 / RFU, DNAJC13 / Fold change vs veh, DNAJC13 / RFU, GNAQ / Fold change vs veh, GNAQ / RFU, CDK5R1 / Fold change vs veh, CDK5R1 / RFU, ZRANB3 / Fold change vs veh, ZRANB3 / RFU, CUL4A / Fold change vs veh, CUL4A / RFU, CCNY / Fold change vs veh, CCNY / RFU, UFL1 / Fold change vs veh, UFL1 / RFU, COG3 / Fold change vs veh, COG3 / RFU, DIAPH2 / Fold change vs veh, DIAPH2 / RFU, SKA2 / Fold change vs veh, SKA2 / RFU, AFF3 / Fold change vs veh, AFF3 / RFU, LMF1 / Fold change vs veh, LMF1 / RFU, IPO11 / Fold change vs veh, IPO11 / RFU, DFFB / Fold change vs veh, DFFB / RFU, FOXP1 / Fold change vs veh, FOXP1 / RFU, CARD8 / Fold change vs veh, CARD8 / RFU, STRN3 / Fold change vs veh, STRN3 / RFU, ADK / Fold change vs veh, ADK / RFU, RASSF2 / Fold change vs veh, RASSF2 / RFU, WIPF1 / Fold change vs veh, WIPF1 / RFU, LARP1B / Fold change vs veh, LARP1B / RFU, RASA1 / Fold change vs veh, RASA1 / RFU, RB1 / Fold change vs veh, RB1 / RFU, PPFIA1 / Fold change vs veh, PPFIA1 / RFU, MAT2A / Fold change vs veh, MAT2A / RFU, CCT5 / Fold change vs veh, CCT5 / RFU, WDR92 / Fold change vs veh, WDR92 / RFU, CUX1 / Fold change vs veh, CUX1 / RFU, TTC7A / Fold change vs veh, TTC7A / RFU, TMEM135 / Fold change vs veh, TMEM135 / RFU, DEPTOR / Fold change vs veh, DEPTOR / RFU, CPM / Fold change vs veh, CPM / RFU, DNAJB6 / Fold change vs veh, DNAJB6 / RFU, CACNA2D3 / Fold change vs veh, CACNA2D3 / RFU, DTX4 / Fold change vs veh, DTX4 / RFU, TFCP2 / Fold change vs veh, TFCP2 / RFU, GMCL1 /// GMCL1P1 / Fold change vs veh, GMCL1 /// GMCL1P1 / RFU, AEBP2 / Fold change vs veh, AEBP2 / RFU, SNHG1 /// SNORD22 /// SNORD25 /// SNORD26 /// SNORD27 /// SNORD28 /// SNORD29 /// SNORD31 / Fold change vs veh, SNHG1 /// SNORD22 /// SNORD25 /// SNORD26 /// SNORD27 /// SNORD28 /// SNORD29 /// SNORD31 / Fold change (Aza/veh), C12orf56 (ProbeSet 11735607_a_at) / Fold change (ACY-1035/veh), C12orf56 (ProbeSet 11735607_a_at) / Fold change (Aza/veh), FGFR1OP (ProbeSet 11751329_s_at) / Fold change (ACY-1035/veh), FGFR1OP (ProbeSet 11751329_s_at) / Fold change (Aza/veh), VPS36 (ProbeSet 11739960_a_at) / Fold change (ACY-1035/veh), VPS36 (ProbeSet 11739960_a_at) / RFU SYPL1 (11715823_x_at) / Fold change /veh SYPL1 (11715823_x_at) / RFU IGFBP7 (11715501_s_at) / Fold change /veh IGFBP7 (11715501_s_at) / RFU REEP3 (11722064_at) / Fold change /veh REEP3 (11722064_at) / RFU IGLL1 (11728026_x_at) / Fold change /veh IGLL1 (11728026_x_at): dose or concentration left out as unconfirmed
Settings: ProbeSet 11748335_a_at; LIST B

Nc1ccc(-c2cccs2)cc1NC(=O)c1ccc2c(c1)cc(C1CC1)n2CCN1CCOCC1 [ACY-1035]
Fold change vs veh, SLMO2: 0.88
